Experimental data reported in patent publication US20030053977A1, “Compositions comprising at least one aminated C5-C7 saccharide unit, and their use for the protection and/or repair of keratinous fibers” (priority 2001, published 2003).

Experiments:
[1] = DSC doublet peak area of normal blonde hair after 12 heat cycles (lyxosylamine)
Method: Normal brown hair was processed with Revlon Realistic Professional Extra-Strength Relaxer for 30 min. at standard room temperature and humidity. The relaxed brown hair was subjected to six heat cycles, each heat cycle comprised applying the treatment solutions to the hair, blow-drying the hair, and applying heat to the hair for 1 min. in the form of the Professional Flat Iron (Solid Gold) set at “High” (130° C. to 135° C.). The hair was shampooed with a 10% solution of sodium laureth sulfate after each heat cycle, that is, after the heat application and prior to application of the treatment solution.
Normal blonde hair was subjected to 12 heat cycles, as described in Example 2, using a 0.1 wt % solution of D-Lyxosylamine.

[2] = DSC doublet peak area of bleached hair after twelve heat cycles (galactosamine)
Method: In the DSC experiments (using DSC-6 with Autosampler, Perkin Elmer), the hair was cut in small fragments (1-2 mm) and sealed in […] aluminum pans that were punctured prior to heating, resulting in a 50 micron laser-drilled opening in the pan lid. The hair was heated from 25° C. to 300° C. at a heating rate of 2^0° C./min. Three runs per section were performed. The results were averaged and standard deviations determined. Normal brown hair was processed with Revlon Realistic Professional Extra-Strength Relaxer for 30 min. at standard room temperature and humidity. The relaxed brown hair was subjected to six heat cycles, each heat cycle comprised applying the treatment solutions to the hair, blow-drying the hair, and applying heat to the hair for 1 min. in the form of the Professional Flat Iron (Solid Gold) set at “High” (130° C. to 135° C.). The hair was shampooed with a 10% solution of sodium laureth sulfate after each heat cycle, that is, after the heat application and prior to application of the treatment solution. Normal brown hair was bleached with […] Blonde Dimensions Dust-Free Bleached mixed with 40 volume (12% hydrogen peroxide). The bleached hair was then subject to twelve heat cycles. The heat treatment was as described in Example 2. The heat-treated hair was tested by DSC (Perkin Elmer Pyris 1 DSC) as described in Example 1. […]

[3] = DSC doublet peak area of bleached hair after 6 and 12 heat cycles
Method: In the DSC experiments (using DSC-6 with Autosampler, Perkin Elmer), the hair was cut in small fragments (1-2 mm) and sealed in […] aluminum pans that were punctured prior to heating, resulting in a 50 micron laser-drilled opening in the pan lid. The hair was heated from 25° C. to 300° C. at a heating rate of 2^0° C./min. Three runs per section were performed. The results were averaged and standard deviations determined. Normal brown hair was processed with Revlon Realistic Professional Extra-Strength Relaxer for 30 min. at standard room temperature and humidity. The relaxed brown hair was subjected to six heat cycles, each heat cycle comprised applying the treatment solutions to the hair, blow-drying the hair, and applying heat to the hair for 1 min. in the form of the Professional Flat Iron (Solid Gold) set at “High” (130° C. to 135° C.). The hair was shampooed with a 10% solution of sodium laureth sulfate after each heat cycle, that is, after the heat application and prior to application of the treatment solution. Normal brown hair was bleached using […] Blonding Gels Clear with 40 volume (12% hydrogen peroxide). The hair was subject to a total of twelve heat cycles. The heat treatment was as described in Example 2. The heat-treated hair was tested by DSC (Perkin Elmer Pyris 1 DSC) as described in Example 1. The hair was tested after Cycles 6 and 12. The treatment solutions included: a) deionized water, b) 0.001% (w/v) glucosamine hydrochloride solution, c) 0.010% (w/v) glucosamine hydrochloride solution, d) 0.100% (w/v) glucosamine hydrochloride solution, and e) 1.000% (w/v) glucosamine hydrochloride solution. Three DSC runs per treatment were performed, the results were averaged, and standard deviations determined.

[4] = DSC doublet peak area (alpha-structure) of relaxed hair after six heat cycles
Method: In the DSC experiments (using DSC-6 with Autosampler, Perkin Elmer), the hair was cut in small fragments (1-2 mm) and sealed in […] aluminum pans that were punctured prior to heating, resulting in a 50 micron laser-drilled opening in the pan lid. The hair was heated from 25° C. to 300° C. at a heating rate of 2^0° C./min. Three runs per section were performed. The results were averaged and standard deviations determined. Normal brown hair was processed with Revlon Realistic Professional Extra-Strength Relaxer for 30 min. at standard room temperature and humidity. The relaxed brown hair was subjected to six heat cycles, each heat cycle comprised applying the treatment solutions to the hair, blow-drying the hair, and applying heat to the hair for 1 min. in the form of the Professional Flat Iron (Solid Gold) set at “High” (130° C. to 135° C.). The hair was shampooed with a 10% solution of sodium laureth sulfate after each heat cycle, that is, after the heat application and prior to application of the treatment solution. The treatment solutions included: a) deionized water; and b) 1% (w/v) glucosamine hydrochloride (Glucosamine HCl). The hair swatches from Example 2 were studied by differential scanning calorimetry (DSC). In this example, the hair was equilibrated at standard room temperature and humidity for 24 hours prior to testing.

[5] = Wet tensile strength (Dia-Stron) of relaxed hair after six heat cycles
Method: Normal brown hair was processed with Revlon Realistic Professional Extra-Strength Relaxer for 30 min. at standard room temperature and humidity. The relaxed brown hair was subjected to six heat cycles, each heat cycle comprised applying the treatment solutions to the hair, blow-drying the hair, and applying heat to the hair for 1 min. in the form of the Professional Flat Iron (Solid Gold) set at “High” (130° C. to 135° C.). The hair was shampooed with a 10% solution of sodium laureth sulfate after each heat cycle, that is, after the heat application and prior to application of the treatment solution. The treatment solutions included: a) deionized water; and b) 1% (w/v) glucosamine hydrochloride (Glucosamine HCl). The hair was tested for wet tensile strength using a Dia-Stron. The fibers were stretched in water at a rate of 10 mm/min., with 50 fibers per test. The results were averaged, and standard deviations determined. As used herein, “Young's modulus” corresponds to the initial resistance of the hair to the applied pulling force, “Work 25%” is the work required to extend the hair fiber to 25% of its length, “Break Extension” is the hair extension observed at the breaking point expressed at percent of its original length, and “Work-Break” is the work required to break the hair.

[6] = 1% solution, relaxed hair, six heat cycles
[7] = relaxed hair after 6 cycles at 130° C. with 1% (w/v) solution, wet tensile, n = 50 fibers

NC1OC[C@@H](O)[C@H](O)[C@@H]1O (stereo partly drawn) [D-Lyxosylamine]
protection of the α-structure of hair as compared to the control solution (deionized water) ([1]; 0.1 wt % solution, normal blonde hair, 12 heat cycles): protected the α-structure
Doublet Peak Area ([1]; normal blonde hair after 12 heat cycles with 0.1% solution): 11.49 +/− 3.56 J/g hair

Cl.N[C@H]1C(O)O[C@H](CO)[C@H](O)[C@@H]1O (some centres unmarked) [Galactosamine HCI, galactosamine hydrochloride]
doublet area as compared to the control solution (deionized water) ([2]; 1% solution, bleached hair, 12 heat cycles): significant increase
Doublet Peak Area ([2]; bleached hair after 12 heat cycles with 1% solution): 41.52 +/− 3.94 J/g hair

Cl.N[C@H]1C(O)O[C@H](CO)[C@@H](O)[C@@H]1O (some centres unmarked) [Glucosamine HCl, glucosamine hydrochloride]
Doublet Peak Area ([3]; 0.001% solution, 6 cycles): 11.11 +/− 1.74 J/g hair
Doublet Peak Area ([3]; 0.001% solution, 12 cycles): 14.74 +/− 5.95 J/g hair
doublet area as compared to the control solution (deionized water) ([3]; 0.001% to 1.000% solutions, 6 and 12 heat cycles): significant increase
Doublet Peak Area ([3]; 0.010% solution, 6 cycles): 12.32 +/− 3.74 J/g hair
Doublet Peak Area ([3]; 0.010% solution, 12 cycles): 21.66 +/− 12.88 J/g hair
Doublet Peak Area ([3]; 0.100% solution, 6 cycles): 17.32 +/− 2.23 J/g hair
Doublet Peak Area ([3]; 0.100% solution, 12 cycles): 20.92 +/− 1.73 J/g hair
Doublet Peak Area ([3]; 1.000% solution, 6 cycles): 19.40 +/− 4.14 J/g hair
Doublet Peak Area ([3]; 1.000% solution, 12 cycles): 22.98 +/− 6.57 J/g hair
doublet area as compared to the control solution (deionized water) [4, 6]: significant increase
Doublet Peak Area ([4]; relaxed hair after 6 heat cycles with 1% solution): 23.11 +/− 7.09 J/g hair
tensile properties as compared to the control treatment with deionized water [5, 6]: superior tensile properties
Break Extension [5, 7]: 55.10 +/− 4.77%
Work 25% [5, 7]: 419 +/− 111 J/m^2
Work-Break [5, 7]: 1800 +/− 477 J/m^2
Young's Modulus [5, 7]: 613 +/− 196 MN/m^2
